# Data as given in US20180153830A1, “SELECTIVE INHIBITORS OF UNDIFFERENTIATED CELLS” (Yissum Research Development Company of the Hebrew …, priority 2012, published 2018).
# “And” between values parts separate entries of the source, which are not always exact repeats. Identical values can stand only once. “Also recorded” adds a separate entry of the source.
# How the values were obtained:
# [1] = tested on: human embryonic stem cells; assay: Oleic acid rescue assay; type: cell-based; conditions: 20 μM PluriSIn (2 μM amsacrine); up to 100 μM BSA-OA
# Procedure: Human embryonic stem cells were cultured without feeder cells in CELLSTAR® 24-well tissue culture plates (Greiner Bio-One) pre-coated with Matrigel™, using mTeSR1 defined medium. […] After 24 hours, the cells were subjected to microscopy imaging and to cell viability measurements.
# In order to further investigate the effect of SCD activity on hPSC viability, the ability of exogenous supplementation of oleic acid (the direct product of SCD1) to rescue cells from PluriSIn-induced apoptosis was further studied, using procedures described in the Materials and Methods section. Cells were exposed to PluriSn #1 in the presence of increasing concentrations of BSA-conjugated oleic acid (BSA-OA).
# For comparison, cells were exposed to 20 μM of PluriSIn #1, #2, #3 and #6 in the presence of 100 μM BSA-OA.
# [2] = tested on: mouse embryos (inner cell mass); assay: In-vitro embryonic development experiments; type: cell-based; conditions: for proportion of high quality blastocysts: compound alone; for embryos developing into good quality (category A/B) blastocysts: compound alone (20 μM PluriSIn #1 or 100 nm A939572); for embryos developing into good quality blastocysts with oleic acid / proportion of high quality blastocysts with oleic acid: compound with 100 μM oleic acid
# Procedure: Superovulation was induced in female mice (CB6F1/OLAHSD and ICR:HSD(CD-1)), by injection of gonadotropins: intraperitoneal injection of 5 IU PMSG (pregnant mare's serum gonadotropin) at 1:00 P.M. was followed by an intraperitoneal injection of 5 IU hCG (human chorionic gonadotropin) 47 hours later, in accordance with the procedures described by Najy et al. [Manipulating the mouse embryo: a laboratory manual, 3rd Edn., Cold Spring Harbor Laboratory Press (2003)].
# Females were mated with stud males immediately after the second injection, and plugging was evident the next morning. Pregnant female mice were sacrificed at approximately 36 hours p.c. (post coitum), and two-cell embryos were collected in accordance with the procedures described by Najy et al. [Manipulating the mouse embryo: a laboratory manual, 3rd Edn., Cold Spring Harbor Laboratory Press (2003)]. The abdominal cavity was opened, and the oviduct was cut and transferred to a Petri dish containing M2 medium at room temperature. The oviduct was flushed with M2 medium, and embryos were picked up using a pipette and washed in M2 medium to rinse off debris. Embryos were then transferred to microdrops of M16 medium. A 35 mm culture dish (Falcon BD) containing drops of 40 μl M16 medium, covered with mineral oil, was prepared the day before, and incubated overnight at a temperature of 37° C. under 5% CO2. Embryos were then transferred to these microdrops following their collection, and incubated at a temperature of 37° C. under 5% CO2. The development of the embryos was examined twice a day using light microscopy imaging. At the morula stage (approximately 3.5 days p.c.), embryos were transferred either to microdrops of 40 μl M16 medium with 20 μM PluriSIn #1 (isonicotinic acid N′-phenylhydrazide) in 0.2% DMSO, or to control microdrops with 0.2% DMSO. Other control embryos were left at the original microdrops to control for possible effects of the transfer itself. At approximately 4 days p.c. and 4.5 days p.c., the embryos were examined using light microscopy imaging, and blastocysts were graded as described by Cortes et al. [Stem Cells and Development 17:255-267 (2008)].
# As described in the Materials and Methods section, a series of independent experiments were performed with two strains of mice, in which two-cell embryos were collected from the oviducts of pregnant mice at approximately 1.5 days post coitum, and these embryos were then let to develop in vitro. The embryos reached the morula stage at approximately 3.5 days post coitum, and were then transferred either to drops with 20 μM PluriSIn #1 (17 embryos in total), drops with 20 μM PluriSIn #1 and 100 μM oleic acid (7 embryos in total), or to control drops with 0.2% DMSO (8 embryos in total), while other control embryos were left to develop without transfer at all (10 embryos in total). Using light microscopy imaging, the development of the embryos was followed until they became mature blastocysts (at approximately 4.5 days post coitum, after which all embryos disintegrated in culture). The blastocysts were then classified into three distinct categories: (A) good quality mouse blastocysts with large and distinct ICM; (B) mouse blastocysts with distinct, but smaller, ICM; and (C) bad quality mouse blastocysts with indistinguishable ICM, as described by Cortes et al. [Stem Cells and Development 17:255-267 (2008)].
# The above experiments with mouse embryos were then repeated using the SCD1 inhibitor A939572 instead of PluriSIn #1, and compared with the results obtained with PluriSIn #1, in order to confirm that the effects of PluriSIn #1 are associated with inhibition of SCD1 activity.
# embryonic stem cells = assay: Annexin V-FITC apoptosis detection (FACS); type: cell-based, human; conditions: for apoptosis of undifferentiated cells: 18 hours, 20 μM PluriSIn #1 or 100 nm A939572
# Procedure: For quantification of apoptosis, an Annexin V-FITC Apoptosis Detection Kit (eBioscience) was used. […] Dissociated cells were suspended at a final concentration of 2-5×10^5 cells/ml, and treated according to the manufacturer's instructions. Analysis was performed using LSR II FACS with FCS Express software.
# The finding of gene expression associated with apoptosis is consistent with previous reports that pluripotent cells are prone to apoptosis [Qin et al., Journal of Biological Chemistry 282:5842-5852 (2007); Momcilovic et al., PloS One 5:e13410 (2010)]. However, pluripotent cells have also been reported to be susceptible to other types of cell death, such as oncosis [Tan et al., Stem Cells 27:1792-1801 (2009)] and autophagy [Alexander et al., PNAS 108:15828-15833 (2011)]. An Annexin V-FITC detection assay and immunoblotting for caspase-3 (a hallmark executioner of apoptosis) were therefore used in order to confirm that the massive hPSC death induced by PluriSIn #1 is indeed apoptosis.
# [3] = tested on: phosphorylated eIF2α in differentiated cells; assay: Phospho-eIF2α immunoblot, differentiated cells; type: cell-based, human; conditions: 20 μM PluriSIn #1 or 100 nm A939572
# Procedure: (§1) For immunoblotting, 10% polyacrylamide gel was used for protein separation and detection. The gel was transferred to a nitrocellulose membrane and antibody hybridization and chemiluminescence were performed according to standard procedures. The primary antibodies in this analysis were rabbit anti-phosphorylated-eIF2a (1:250, Cell Signaling Technology), rabbit anti caspase-3 (1:1,000, Cell Signaling Technology), mouse anti β-catenin (1:10,000, BD Biosciences) and mouse anti-α-tubulin (1:50,000, Sigma-Aldrich). Horseradish peroxidase-conjugated anti-rabbit and anti-mouse secondary antibodies were obtained from Jackson Immunoresearch Laboratories.
# (§2) To further study the significance of UPR, XBP1 mRNA splicing and eIF2α phosphorylation, hallmarks of UPR, were further examined. Human ES cells and ES-derived differentiated cells were treated with PluriSIn #1 for 12 hours, and expression of the spliced isoform sXBP1 was determined by quantitative PCR and by immunoblotting, as described in the Materials and Methods section. Gene expression change conferred by dithiothreitol ([…]) was used as a positive control.
# [4] = tested on: phosphorylated eIF2α in hPSCs; assay: Phospho-eIF2α immunoblot, ES cells; type: cell-based, human; conditions: 20 μM PluriSIn #1 or 100 nm A939572
# Procedure: as §1, §2
SMILES,protection by BSA-conjugated oleic acid (BSA-OA) against cell death induced by the compound [1],embryos developing into blastocysts with no distinguished ICM (category C) ([2]; 20 μM),embryos stuck at the morula stage ([2]; 20 μM),proportion of high quality blastocysts [2] [%],embryos developing into good quality (category A/B) blastocysts [2],embryos developing into good quality blastocysts with oleic acid [2],proportion of high quality blastocysts with oleic acid [2] [%],"increase in number of apoptotic cells (embryonic stem cells; 20 μM, 16 hours post-treatment)",apoptosis of undifferentiated cells (embryonic stem cells),"levels of phosphorylated eIF2α, differentiated cells [3]","levels of phosphorylated eIF2α, ES cells [4]"
"Cc1ccc(NNC(=O)C(O)(c2ccccc2)c2cccs2)cc1 (centres unmarked) [PluriSIn #6, 2-hydroxy-2-(thiophen-2-yl)-2-phenylacetic acid 4-methyl-N′-phenylhydrazide]",protected,–,–,–,–,–,–,–,–,–,–
"O=C(NNc1ccccc1)c1ccncc1 [PluriSIn #1, isonicotinic acid N′-phenylhydrazide]",full rescue; also recorded: protected,6 of 17 and 6/17,4 of 17 and 4/17,41,7 of 17 and 7/17,5 of 7,71,approximately 7 fold,enhanced apoptosis,did not increase levels,increased levels
O=S(=O)(NNc1ccccc1)c1ccc2ccccc2c1 [PluriSIn #5],protected,–,–,–,–,–,–,–,–,–,–
"CNC(=O)c1cccc(NC(=O)N2CCC(Oc3ccccc3Cl)CC2)c1 [A939572, 4-(2-chlorophenoxy)-N-(3-(methylcarbamoyl)-phenyl)piperidine-1-carboxamide, reference compound]",–,–,–,56,5 of 9,5 of 7,71,–,enhanced apoptosis,did not increase levels,increased levels
